# Measured values from ChEMBL document CHEMBL3751825, “Synthesis and protective effect of new ligustrazine derivatives against CoCl2-induced neurotoxicity in differentiated PC12 cells. Part 2” (Medchemcomm, 2015).
# Experiment: Neuroprotective activity against cobalt chloride-induced neurotoxicity in rat differentiated PC12 cells
# Assay type: functional, cell-based
# Details: pc-12
row,SMILES,EC50 [µM]
1,C=CCc1ccc(OCc2nc(C)c(C)nc2C)c(OC)c1,4.62
2,COc1ccc(C(C)=O)c(OCc2nc(C)c(C)nc2C)c1,< 15
3,COc1cccc(/C=C/C(=O)OCc2nc(C)c(C)nc2C)c1,< 24
4,COc1cc(/C=C/C(=O)OCc2nc(C)c(C)nc2C)cc(OC)c1OC,< 24
5,COc1ccc(/C=C/C(=O)OCc2nc(C)c(C)nc2C)cc1OC,< 24
6,COc1cccc(/C=C/C(=O)OCc2nc(C)c(C)nc2C)c1OC,< 24
7,Cc1nc(C)c(COC(=O)c2cc(OCc3nc(C)c(C)nc3C)c(OCc3nc(C)c(C)nc3C)c(OCc3nc(C)c(C)nc3C)c2)nc1C,> 100
8,COc1ccccc1/C=C/C(=O)OCc1nc(C)c(C)nc1C,< 24
9,COc1ccc(OC)c(/C=C/C(=O)OCc2nc(C)c(C)nc2C)c1,< 24
10,COc1ccc(/C=C/C(=O)OCc2nc(C)c(C)nc2C)c(OC)c1OC,0.719
11,COc1ccc(/C=C/C(=O)OCc2nc(C)c(C)nc2C)cc1,< 24

# Experiment: Neuroprotective activity against cobalt chloride-induced neurotoxicity in rat NGF-differentiated PC12 cells assessed as increase of neurite-bearing cell level at 60 uM after 12 hrs
# Details: not given
row,SMILES,Activity [%]
1,COc1ccc(/C=C/C(=O)OCc2nc(C)c(C)nc2C)c(OC)c1OC,50.8
